Results published in ChEMBL document CHEMBL4808172, “Structure-Activity Relationship of Heterocyclic P2Y14 Receptor Antagonists: Removal of the Zwitterionic Character with Piperidine Bioisosteres” (J Med Chem, 2021).
≈ marks a conversion by molar mass, not a printed value. Where “and” joins values, the source holds several entries; their conditions need not be identical. Identical values can stand only once. Calls of active or inactive are those of the source. The rule behind the calls is not given here.

Assays:
[1] = Stability of compound in aqueous medium after 24 hrs in absence of PLE by HPLC analysis; assay type: physicochemical; conditions: buffer
[2] = biological target: T1, liver carboxylesterase (Sus scrofa, UniProt Q29550); assay: Drug metabolism in pH 7.5 HEPES buffer assessed as porcine liver esterase-mediated compound hydrolysis by measuring half life measured up to 72 hrs by HPLC analysis; assay type: ADME, tissue-based; conditions: pig
T1 sequence (Q29550 whole entry): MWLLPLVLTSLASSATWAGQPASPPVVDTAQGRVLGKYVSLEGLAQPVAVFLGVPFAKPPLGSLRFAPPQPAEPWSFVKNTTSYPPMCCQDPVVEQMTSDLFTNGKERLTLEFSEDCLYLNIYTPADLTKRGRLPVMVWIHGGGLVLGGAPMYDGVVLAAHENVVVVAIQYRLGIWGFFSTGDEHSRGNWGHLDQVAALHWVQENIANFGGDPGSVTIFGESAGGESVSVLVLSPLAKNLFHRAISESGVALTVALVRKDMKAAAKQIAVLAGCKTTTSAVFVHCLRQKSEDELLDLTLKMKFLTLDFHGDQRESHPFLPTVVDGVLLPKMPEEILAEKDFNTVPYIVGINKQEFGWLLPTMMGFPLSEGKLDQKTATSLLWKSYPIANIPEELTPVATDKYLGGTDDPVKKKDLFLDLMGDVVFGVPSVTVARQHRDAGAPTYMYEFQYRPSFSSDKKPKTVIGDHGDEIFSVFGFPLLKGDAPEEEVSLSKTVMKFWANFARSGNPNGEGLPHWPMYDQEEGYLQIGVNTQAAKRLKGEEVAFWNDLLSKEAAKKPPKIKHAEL

[3] = tested on: Mus musculus; assay: Antiinflammatory activity in mouse model of ovalbumin/Aspergillus-induced allergic asthma assessed as reduction in eosinophil counts in BALF at 20 umol/kg, ip administered 30 mins prior to allergen challenge and measured after 2 days post challenge; assay type: functional, organism-based; conditions: dose 20.0 µmol/kg, time 2.0 day
[4] = biological target: T1, liver carboxylesterase; assay: Drug metabolism in pH 7.5 HEPES buffer assessed as porcine liver esterase-mediated compound hydrolysis measured up to 72 hrs by HPLC analysis; assay type: ADME; conditions: pig, read-out: Drug degradation
[5] = biological target: Sigma intracellular receptor 2 (Homo sapiens, UniProt Q5BJF2); assay: Binding affinity to sigma 2 receptor (unknown origin)
Sequence of Sigma intracellular receptor 2 (Q5BJF2 whole entry): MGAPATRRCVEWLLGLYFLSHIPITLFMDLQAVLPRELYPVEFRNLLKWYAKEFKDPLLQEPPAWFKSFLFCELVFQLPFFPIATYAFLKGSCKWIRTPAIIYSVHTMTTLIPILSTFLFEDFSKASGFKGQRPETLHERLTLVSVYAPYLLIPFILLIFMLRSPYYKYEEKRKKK

[6] = biological target: Delta-type opioid receptor (Homo sapiens, UniProt P41143); assay: Binding affinity to DOR (unknown origin)
Sequence of Delta-type opioid receptor (P41143 whole entry): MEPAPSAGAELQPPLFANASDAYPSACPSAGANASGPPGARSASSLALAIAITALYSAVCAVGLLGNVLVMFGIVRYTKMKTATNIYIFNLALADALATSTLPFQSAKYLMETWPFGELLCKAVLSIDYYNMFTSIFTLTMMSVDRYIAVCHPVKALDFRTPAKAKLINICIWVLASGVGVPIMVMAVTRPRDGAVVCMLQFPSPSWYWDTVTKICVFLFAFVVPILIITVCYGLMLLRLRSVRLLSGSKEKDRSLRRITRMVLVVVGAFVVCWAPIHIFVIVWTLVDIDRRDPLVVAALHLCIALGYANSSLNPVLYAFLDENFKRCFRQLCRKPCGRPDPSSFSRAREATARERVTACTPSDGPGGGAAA

[7] = biological target: Sigma non-opioid intracellular receptor 1 (Homo sapiens, UniProt Q99720); assay: Binding affinity to sigma 1 receptor (unknown origin)
Sequence of Sigma non-opioid intracellular receptor 1 (Q99720 whole entry): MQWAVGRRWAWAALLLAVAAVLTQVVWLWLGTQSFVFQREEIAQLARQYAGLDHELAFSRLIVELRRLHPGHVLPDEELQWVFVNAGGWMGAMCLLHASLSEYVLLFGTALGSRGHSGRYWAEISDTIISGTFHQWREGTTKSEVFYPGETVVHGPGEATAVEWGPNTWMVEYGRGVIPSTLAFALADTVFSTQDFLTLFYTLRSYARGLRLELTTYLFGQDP

[8] = biological target: Translocator protein (Homo sapiens, UniProt P30536); assay: Binding affinity to TSPO (unknown origin)
Sequence of Translocator protein (P30536 whole entry): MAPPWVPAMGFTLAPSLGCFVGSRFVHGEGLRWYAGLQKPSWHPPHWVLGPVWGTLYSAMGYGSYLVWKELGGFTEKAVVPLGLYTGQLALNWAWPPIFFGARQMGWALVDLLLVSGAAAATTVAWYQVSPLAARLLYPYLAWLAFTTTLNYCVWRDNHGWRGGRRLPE

[9] = Aqueous solubility of compound at pH 4.0; assay type: physicochemical; conditions: buffer
[10] = biological target: Histamine H1 receptor (Homo sapiens, UniProt P35367); assay: Binding affinity to H1 receptor (unknown origin)
Sequence of Histamine H1 receptor (P35367 whole entry): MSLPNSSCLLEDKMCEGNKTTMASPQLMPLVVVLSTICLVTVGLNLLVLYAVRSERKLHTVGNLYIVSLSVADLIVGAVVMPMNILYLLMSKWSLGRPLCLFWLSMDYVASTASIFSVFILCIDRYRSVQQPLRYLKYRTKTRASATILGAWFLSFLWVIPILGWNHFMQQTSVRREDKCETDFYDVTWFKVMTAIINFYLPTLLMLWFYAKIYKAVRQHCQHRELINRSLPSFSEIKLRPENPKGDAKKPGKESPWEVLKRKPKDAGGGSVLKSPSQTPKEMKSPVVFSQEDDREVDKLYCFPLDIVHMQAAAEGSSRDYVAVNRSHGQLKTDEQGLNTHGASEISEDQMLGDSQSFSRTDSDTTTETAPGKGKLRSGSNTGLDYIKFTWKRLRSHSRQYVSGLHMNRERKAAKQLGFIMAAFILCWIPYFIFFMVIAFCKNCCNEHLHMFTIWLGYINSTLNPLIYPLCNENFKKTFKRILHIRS

[11] = Aqueous solubility of compound at pH 7.4; assay type: physicochemical; conditions: buffer

SMILES | Stabilty [1] | half-life [2] [h] | Activity [3] | metabolised at 72 h [4] [%] | Ki [5] [µM] | Ki [6] [µM] | Ki [8] [µM] | also measured
CC(=O)N1CCC(c2ccc(-c3cc(C(=O)OCC(=O)N(C)C)cc4cc(-c5ccc(C(F)(F)F)cc5)ccc34)cc2)CC1 | Stable | > 72 | Active | 27.2 | 0.59 | – | – | –
CN(C)C(=O)COC(=O)c1cc(-c2ccc(-c3cc(CO)on3)cc2)c2ccc(-c3ccc(C(F)(F)F)cc3)cc2c1 | Stable | > 72 | Active | 32.6 | – | – | – | –
O=C(O)c1cc(-c2ccc(-c3nnn[nH]3)cc2)cc(-n2cc(-c3ccc(C(F)(F)F)cc3)nn2)c1 | – | – | – | – | 2.26 | 3.3 | – | –
O=C(O)c1cc(-c2ccc(NC(=O)C3CCNCC3)cc2)cc(-n2cc(-c3ccc(C(F)(F)F)cc3)nn2)c1 | – | – | – | – | – | 2 | – | Ki [7]: 2.33 µM
NC(=O)Cc1ccc(-c2cc(C(=O)O)cc(-n3cc(-c4ccc(C(F)(F)F)cc4)nn3)c2)cc1 | – | – | – | – | 0.931 | – | 2.81 | –
O=C(O)c1cc(-c2ccc(-c3cc(CO)on3)cc2)cc(-n2cc(-c3ccc(C(F)(F)F)cc3)nn2)c1 | – | – | – | – | – | – | 0.751 | solubility [9]: 0.6 µg/mL (≈ 1.18 µM); Ki [10]: 2.65 µM; solubility [11]: 3.72 ug ml-1 and 7.34 uM
